{
  "source": "patent US20030217372A1",
  "about": "“Methods of using alpha 1b-adrenergic receptors” (priority 2002, published 2003)",
  "key": {"[1]": {"system": "WT and α1b-AR KO mice", "assay": "Locomotor activity in circular corridor after acute drug injection", "format": "in vivo", "settings": "for amplitude of locomotor response, α1b-AR KO vs WT mice: D-amphetamine 2 and 3 mg/kg, cocaine and morphine independent of dose", "procedure": "FIG. 2 is a series of dose response graphs that depicts the results of locomotor response to novelty, saline, scopolamine and chloro-APB experiments in WT and α1b-AR KO mice. […] Animals were placed in the experimental apparatus for 90 minutes, received a saline injection and were replaced in the apparatus for 60 minutes. On the following day, animals were placed in the experimental apparatus for 90 minutes, they received an intraperitoneal injection of either saline or scopolamine (1 mg/kg) and their locomotor response was measured every 5 minutes for 60 minutes. FIG. 2D represents the results of locomotor response to chloro-APB; animals were placed in the experimental apparatus for 90 minutes, received a saline injection and were replaced in the apparatus for 60 minutes. On the following days, animals were placed in the experimental apparatus for 90 minutes, they received an intraperitoneal injection of chioro-APB and their locomotor response was measured every 5 minutes for 60 minutes. Several doses of chloro-APB were tested on consecutive days in a random order.\nIndependent groups of animals were used for each treatment to avoid eventual behavioral sensitization (N=6-16 per group).\n(§1) Mice were introduced in a circular corridor (4.5 cm width, 17 cm external diameter) crossed by four infrared beams (1.5 cm above the base) placed at every 90° (Imetronic, Pessac, France). The locomotor activity was counted when animals interrupted two successive beams and, thus, had traveled ¼ of the circular corridor. In each session, the spontaneous activity was recorded for 90 minutes, before mice received either saline or drugs. Their activity was recorded for an additional 60 minutes or 120 minutes period. The first session was a session of habituation to the experimental procedure during which animals received saline (˜3 ml/kg, i.p.). The locomotor response to a drug administration was measured on the following day. Tests were performed between 12:00 and 6:00 p.m. in stable conditions of temperature and humidity."}, "[2]": {"system": "WT and α1b-AR KO mice", "assay": "Oral consumption, two-bottle choice paradigm", "format": "in vivo", "settings": "cocaine 0.2 mg/ml, morphine 0.15 mg/ml", "procedure": "Fluid intake was measured daily by weighting bottles, mice being housed individually. Tested solutions were replaced twice weekly.\nCocaine and morphine: For two weeks, bottles were filled with cocaine or morphine solution of decreasing concentration (one dose per week; 0.3 mg/ml then 0.2 mg/ml for cocaine and 0.2 mg/ml and 0.15 mg/ml for morphine) instead of water, so that mice accustom to the bitter taste. […] Then, to determine mean water consumption and eliminate basal side preference, two bottles of water were given for three days to each animal and basal consumption was calculated as the mean consumption from one bottle on day 2 and the other on day 3. Preference for cocaine (0.2 mg/ml) or morphine (0.15 mg/ml) was then measured over two 12-day sessions, drug and water sides being exchanged between the 2 sessions. Means of drug and water consumptions were estimated for the last 5 days of both 12-day periods.\nRewarding properties of cocaine and morphine were assessed in a two-bottle choice paradigm adapted from the method described by Ferraro et al. (Ferraro et al., Pharmacol. Biochem. Behav. 66:397-401, 2000) for cocaine and Borg and Taylor (Borg et al., Biochem. Behav. 47:633-46, 1994) for morphine."}, "[3]": {"system": "WT and α1b-AR KO mice", "assay": "Locomotor sensitization induced by repeated drug administration", "format": "in vivo", "procedure": "Animals spent 90 minutes in the experimental apparatus, received a saline injection and were replaced in the apparatus for 60 minutes. […] Four similar sessions took place every other day. The sixth session took place after a 10-day withdrawal. Locomotor responses measured during the first hour following each injection are presented in function of the number of injections and slope values. N=6 to 15 animals per group.\nN=6 to 12 animals per group. […] FIG. 6B represents the time course of the locomotor responses measured every 5 minutes.\nas §1\nData were analyzed with Student's t-test or analysis of variance. For behavioral sensitization experiments, correlation between the number of drug injections and the amplitude of the locomotor responses was analyzed with linear regression and the influence of genotype on this correlation with an analysis of covariance. Genotype and prazosin treatments were between-subjects factors. […] Differences were considered significant when p<0.05.\nThe rate of sensitization was evaluated by determining the slope of the “number of injections/response” curve (FIG. 5)."}, "[4]": {"system": "WT and α1b-AR KO mice", "assay": "Morphine-induced conditioned place preference (Y maze)", "format": "in vivo", "settings": "for conditioned place preference (CPP): morphine 5 mg/kg s.c.; for locomotor activity during conditioning sessions, morphine vs saline: repeated morphine 5 mg/kg s.c.", "procedure": "FIG. 8 is a series of histograms and dose response graphs that represents the results of a conditioned place preference experiment induced by morphine in WT and α1b-AR KO mice. WT and α1b-AR KO mice were conditioned to receive morphine (5 mg/kg s.c.) in a compartment and a saline injection in the other compartment. The saline group received saline injections in both compartments. N=6 to 11 animals per group. The upper left graph show the time spent in the morphine-associated compartment before conditioning (pre-test), after four morphine injections and four saline injections (post-test 1) and after two supplementary morphine and two supplementary saline injections (post-test 2). *p<0.05 and **p<0.01 when time spent in the drug compartment was different between pretest and post-test 1 or 2 (paired Student's t-test). The upper right graph show scores that correspond to the time spent in the morphine compartment during the post-test (1 and 2) minus time spent in the morphine compartment during the pre-test. p<0.05 when scores were higher for morphine treated mice than for saline treated mice (unpaired Student's t-test). The lower left and lower right graphs show the locomotor activity measured during the 30 minutes of each of the 12 conditioning sessions corresponding either to morphine or to saline injection. ***p<0.001 locomotor activity measured during the morphine session was higher than during the corresponding saline session (paired Student's t-test).\nConditioned place preference was measured in a Y maze. Mice were habituated to the experimental apparatus (Imetronic, Pessac, France) for 3 days (1 hour of exploration of the maze with neutral cues, i.e. smooth gray walls and floor). On the following day, animals were allowed to freely explore the two compartments (with different visual and tactile cues) of the maze for 20 minutes corresponding to a pre-conditioning test. The total amount of time spent in each compartment was recorded and analyzed as previously described (Valverde et al., Psychopharmacology (Berlin) 123:119-26, 1996). For the next […] corresponding to the conditioning session, mice alternatively received morphine (5 mg/kg; s.c.) in one compartment and saline in the other compartment the following day. According to the unbiased method, morphine was equally associated to both compartments and was given either first or second, mice being confined in one compartment for the 30 minutes following each injection. One day after the end of the conditioning session, mice were submitted to a post-conditioning test identical to the test performed before conditioning, i.e. each mice being allowed to explore both compartments for 20 minutes. […] Locomotor activities were recorded with electronic cells in each conditioning session."}, "[5]": {"target": "T1, α1b-ARs (Mus musculus, UniProt P97717)", "T1 construct": "endogenous in cells; host or cells: living adult male WT mice (129/Sv x C57BL/6J mixed background), in vivo; α1b-AR KO mice as comparison", "T1 sequence (P97717 1-514)": "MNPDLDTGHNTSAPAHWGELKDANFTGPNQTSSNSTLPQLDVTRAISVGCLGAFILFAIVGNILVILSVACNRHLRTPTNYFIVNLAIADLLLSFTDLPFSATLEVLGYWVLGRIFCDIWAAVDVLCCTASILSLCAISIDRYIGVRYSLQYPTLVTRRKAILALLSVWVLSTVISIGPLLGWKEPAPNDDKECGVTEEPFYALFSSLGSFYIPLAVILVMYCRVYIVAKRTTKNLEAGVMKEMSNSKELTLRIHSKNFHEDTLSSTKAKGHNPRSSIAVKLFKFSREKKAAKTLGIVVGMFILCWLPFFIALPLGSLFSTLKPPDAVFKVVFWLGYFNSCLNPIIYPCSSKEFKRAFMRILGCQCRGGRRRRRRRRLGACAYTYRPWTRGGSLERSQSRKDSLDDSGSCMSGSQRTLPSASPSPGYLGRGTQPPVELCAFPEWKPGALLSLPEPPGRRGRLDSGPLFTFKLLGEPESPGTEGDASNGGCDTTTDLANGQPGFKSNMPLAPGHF", "assay": "Prazosin effect on locomotor responses to D-amphetamine, cocaine and morphine", "format": "in vivo, mice", "settings": "prazosin 1 mg/kg i.p. pre-treatment", "procedure": "Animals were placed in the experimental apparatus for 150 minutes, received two saline injections after 60 minutes and 90 minutes spent in the corridor. On the following day, animals were placed in the experimental apparatus for 60 minutes, they received an intrapenitoneal injection of either saline or prazosin (1 mg/kg) and were replaced in the corridor for 30 minutes. […] Independent groups of animals were used for each treatment to avoid eventual behavioral sensitization (N=6-12 per group).\nas §1, with “In each session, the spontaneous activity was recorded for 90 minutes, before mice received either saline or drugs.” left out"}, "[6]": {"system": "α1-adrenergic receptors", "settings": "cited from earlier work"}, "[7]": {"settings": "α1b-AR KO mice, i.p., different doses"}},
  "note": "Counter-ions that a name gives are not always drawn.",
  "data": [
    {"smiles": "Br.C=CCN1CCc2c(cc(O)c(O)c2Cl)C(c2ccccc2)C1", "note": "(stereo not shown) [chloro-APB, chloro-APB hydrobromide]", "values": [
      {"measurement": "locomotor activity", "setting": "[1]; WT mice, chloro-APB i.p., several doses", "value": "dose-dependently increase locomotor activity"},
      {"measurement": "amplitudes of locomotor responses, WT vs α1b-AR KO mice", "setting": "[1]; chloro-APB i.p., several doses", "value": "No significant differences"}
    ]},
    {"smiles": "COC(=O)[C@H]1[C@@H](OC(=O)c2ccccc2)C[C@@H]2CC[C@H]1N2C.Cl", "note": "[cocaine, cocaine hydrochloride]", "values": [
      {"measurement": "drug consumption vs water in two-bottle choice (rewarding properties)", "setting": "[2]; KO mice", "value": "aversion"},
      {"measurement": "drug consumption vs water in two-bottle choice (rewarding properties)", "setting": "[2]; WT mice", "value": "exhibited a preference"},
      {"measurement": "locomotor responses of drug-treated vs naive mice", "setting": "[3]; KO mice, cocaine 5 mg/kg, 5 previous drug injections", "value": "no significant difference"},
      {"measurement": "rate of sensitization: slope of the number of injections/response curve", "setting": "[3]; WT mice, cocaine 5 mg/kg", "value": "101.0±47.4"},
      {"measurement": "rate of sensitization: slope of the number of injections/response curve", "setting": "[3]; WT mice, cocaine 15 mg/kg", "value": "198.2±48.19"},
      {"measurement": "rate of sensitization: slope of the number of injections/response curve", "setting": "[3]; α1b-AR KO mice, cocaine 5 mg/kg", "value": "−0.155±20.96"},
      {"measurement": "rate of sensitization: slope of the number of injections/response curve", "setting": "[3]; α1b-AR KO mice, cocaine 15 mg/kg", "value": "102.8±19.37"},
      {"measurement": "amplitude of locomotor response, α1b-AR KO vs WT mice", "setting": "[1]", "value": "significantly altered by the genotype"},
      {"measurement": "locomotor activity", "setting": "[1]; WT mice, i.p., different doses", "value": "dose-dependent stimulation of locomotor activity"},
      {"measurement": "locomotor activity", "setting": "[1]; [7]", "value": "also increased locomotor activity"}
    ]},
    {"smiles": "CN1CC[C@]23c4c5ccc(O)c4O[C@H]2[C@@H](O)C=C[C@H]3[C@H]1C5", "note": "[morphine, morphine chiorhydrate]", "values": [
      {"measurement": "conditioned place preference (CPP)", "setting": "[4]; KO mice", "value": "not in KO mice"},
      {"measurement": "locomotor activity during conditioning sessions, morphine vs saline", "setting": "[4]; KO mice", "value": "no significant difference"},
      {"measurement": "conditioned place preference (CPP)", "setting": "[4]; WT mice", "value": "significant CPP was induced"},
      {"measurement": "locomotor activity during conditioning sessions, morphine vs saline", "setting": "[4]; WT mice", "value": "induce a behavioral sensitization in WT"},
      {"measurement": "drug consumption vs water in two-bottle choice (rewarding properties)", "setting": "[2]; KO mice", "value": "aversion"},
      {"measurement": "rate of sensitization: slope of the number of injections/response curve", "setting": "[3]; WT mice, morphine 7.5 mg/kg", "value": "146.7±51.4"},
      {"measurement": "rate of sensitization: slope of the number of injections/response curve", "setting": "[3]; α1b-AR KO mice, morphine 7.5 mg/kg", "value": "38.17±19.48"},
      {"measurement": "amplitude of locomotor response, α1b-AR KO vs WT mice", "setting": "[1]", "value": "significantly altered by the genotype"},
      {"measurement": "stereotyped walking behavior", "setting": "[1]; KO mice", "value": "induced a stereotyped walking behavior"},
      {"measurement": "locomotor activity", "setting": "[1]; WT mice, i.p., different doses", "value": "dose-dependent stimulation of locomotor activity"},
      {"measurement": "locomotor activity", "setting": "[1]; [7]", "value": "also increased locomotor activity"}
    ]},
    {"smiles": "COc1cc2nc(N3CCN(C(=O)c4ccco4)CC3)nc(N)c2cc1OC", "note": "[prazosin]", "values": [
      {"measurement": "effect on locomotor response to D-amphetamine", "setting": "[5]; WT mice, D-amphetamine 3 mg/kg", "value": "significantly reduced"},
      {"measurement": "effect on locomotor response to cocaine", "setting": "[5]; WT mice, cocaine 20 mg/kg", "value": "significantly reduced"},
      {"measurement": "effect on locomotor response to morphine", "setting": "[5]; WT mice, morphine 10 mg/kg", "value": "significantly reduced"},
      {"measurement": "effect on locomotor responses to D-amphetamine, cocaine and morphine", "setting": "[5]; α1b-AR KO mice", "value": "failed to modify"},
      {"measurement": "behavioral sensitization with prazosin co-administered with repeated cocaine or D-amphetamine injections", "setting": "[6]; background statement", "value": "no behavioral sensitization is observed"},
      {"measurement": "locomotor hyperactivity induced by D-amphetamine, cocaine, GBR12783 and morphine", "setting": "[6]; background statement", "value": "completely inhibits"},
      {"measurement": "D-amphetamine-induced locomotor hyperactivity and extracellular DA responses in the nucleus accumbens", "setting": "[6]; rats, Darracq et al. 1998", "value": "inhibits D-amphetamine-induced locomotor hyperactivity without modifying extracellular DA responses"}
    ]},
    {"smiles": "CN1[C@@H]2C[C@@H](OC(=O)[C@H](CO)c3ccccc3)C[C@H]1[C@@H]1O[C@@H]12", "note": "[scopolamine, scopolamine hydrobromide]", "values": [
      {"measurement": "stimulatory effect on locomotor activity, WT vs α1b-AR KO mice", "setting": "[1]; scopolamine 1 mg/kg i.p., 60 minutes", "value": "equivalent"}
    ]}
  ]
}
